# Reference: patent US20230175022A1 (priority 2020, published 2023)
# Tests used:
# S. cerevisiae [1] = test: Growth of S. cerevisiae strains in overlay/underlay candidates (OD600); type: cell-based, Saccharomyces cerevisiae; settings: 20% (v/v) overlay/underlay; for toxicity to growth (OD600 as proxy for biomass growth): YP+2% (w/v) galactose or glucose, 96 well deepwell plates, production and non-production strains; for toxicity to growth (OD600), with glucose: YP+2% (w/v) glucose; for toxicity to growth (OD600), with galactose: YP+2% (w/v) galactose
# Description: To test non-toxic organic overlays/underlays, different non-production background and production strains of S. cerevisiae (Table 1) were inoculated from colonies on YPD agar plates and grown for approximately 24 hours in 96 well deepwell plates containing 300 μL YP+2% (w/v) glucose at 30° C. with 950 rpm shaking (3 mm throw) and maintained at 85% humidity. These cultures were then used to inoculate 96 well deepwell plates containing 300 μL YP+2% (w/v) galactose (YP gal) or glucose (YP glu), with or without addition of 0.04% (w/v) hexanoic acid (HA) plus 20% (v/v) (60 μL) of different overlays/underlays or no organic phase, under the same conditions described for precultures. At three different times (specified in plots), biological triplicate cultures were sampled and optical density at 600 nm (0D600) was measured as a proxy for biomass growth on a SpectraMax plate reader, with dilution in water to allow measurements to be within the linear range of instrumental readings. Averaged OD600s across at least three biological replicates of each strain/overlay condition at each sampling time. Multiple sets of measurements were performed on large groups of overlay and underlay candidates in different batches.
# [2] = Partitioning of divarinic acid and divarin into organic overlays (96 well deepwell plate, HPLC); type: physicochemical; settings: Delft medium+CSM+2% glucose, 48 hours
# Description: Several monoester and one diester overlay candidate were compared to IPM for production of divarinic acid and divarin. LSC3-13 precultures were inoculated from YPD streak plates and grown in 300 μL Delft medium+0.79 g/L complete supplement mixture (CSM) (ForMedium, Norfolk, UK)+2% (w/v) glucose in round-bottom square well 96 well deepwell plates for approximately 18 hours overnight at 30° C. with 950 rpm shaking in an Infors plate shaker. 96 well deepwell plate wells containing 300 μL of Delft medium+CSM+2% (w/v) glucose, 60 μL of different overlay solvents, and 0.08% (w/v) butyric acid, were inoculated with 10 μL of preculture and grown for 30° C. with 950 rpm shaking. After 48 hours, the aqueous layer and overlay were sampled on a Bravo automated liquid handling platform (Agilent) and samples from the aqueous and organic overlay phases were subjected to HPLC analysis to measure divarinic acid and divarin production.
# S. cerevisiae [3] = test: Growth of S. cerevisiae strains in overlay/underlay candidates (OD600); type: cell-based, Saccharomyces cerevisiae; settings: 1-10% (v/v), particularly 1-2.5% (v/v), in IPM and isopar M
# [4] = Partitioning of olivetolic acid between organic overlay and aqueous culture phase (shake flask, HPLC); type: physicochemical; settings: YP+2% galactose culture, not acidified
# Description: Precultures of LSC3-2 and LSC3-18 were inoculated from YPD streak plates and grown in 30 mL of YP+2% (w/v) glucose in baffled 250 mL shake flasks for approximately 18 hours overnight at 30° C. with 200 rpm shaking. Baffled 250 mL shake flasks containing 30 mL of YP+2% (w/v) galactose, 5 mL of IPM or diethyl sebacate, and 0.04% (w/v) hexanoic acid, were inoculated with 1 mL of preculture and grown for at 30° C. with 200 rpm shaking. After 24 and 48 hours, samples of cell culture broth plus overlay were sampled into microcentrifuge tubes and stored at −20° C. at least overnight. Sample tubes were thawed and aqueous sample and overlay sample were pipetted into plates for HPLC analysis. Overlay samples were diluted 1:1 v/v with methanol in the HPLC plate prior to analysis.
Compound,toxicity to growth (OD600 as proxy for biomass growth) (S. cerevisiae [1]),also measured
CCCCCCCCCC(=O)OCC [ethyl decanoate],increasingly non-toxic,
CCCCCCCCCC(=O)OC [methyl decanoate],moderately inhibitory to growth but still allowed for growth,
CCCCCCOC(=O)CCCCC [hexyl hexanoate],moderately non-toxic,
"CCCc1cc(O)cc(O)c1 [divarin, 1,3-dihydroxy-5-propylbenzene]",,partitioning into monoester overlays compared with olivetolic acid and olivetol [2]: partition less effectively
CCCCOC(=O)CCCCC(=O)OCCCC [dibutyl adipate],no apparent toxicity,
CCCCCCCC/C=C\CCCCCCCCO [oleyl alcohol],supports robust growth,
CC(C)OC(=O)CCCCC(=O)OC(C)C [diisopropyl adipate],Some growth was observed,
CCCCCCCC(=O)OCC(COC(=O)CCCCCCC)OC(=O)CCCCCCC [Tricaprylin],fairly toxic,"toxicity to growth (OD600), with glucose (S. cerevisiae [1]): allowed some growth of all strains"
"CC(C)(C)OC(=O)CC(=O)OC(C)(C)C [di-cert-butyl malonate, Di-tert-butyl malonate]",,"toxicity to growth (OD600), with galactose (S. cerevisiae [1]): appearing toxic or to induce substantial lag; toxicity to growth (OD600), with glucose (S. cerevisiae [1]): supported growth of all strains; toxicity to growth of mixture in IPM or isopar M (S. cerevisiae [3]): much lower toxicity"
CCCCCCCC(=O)OC(C)C [Isopropyl octanoate],moderately inhibitory but allowed for some growth,
CCCCOC(=O)CCCCCCCCC(=O)OCCCC [Dibutyl sebacate],completely non-inhibitory to growth,
CCCCCCCCCCO [Decanol],toxic to growth,
CCCCCCCCCCCCCC(=O)OC [methyl myristate],non-toxic,
"2,2,4-trimethyl-1,3-pentanediol monoisobutyrate [Texanol]",inhibitory to growth,
"CCCCCCCCCCCCCC(=O)OC(C)C [IPM, isopropyl myristate]",non-toxic,
CCOC(=O)CCCCCCCCC(=O)OCC [diethyl sebacate],modest growth by most strains,
CCCCCCCCCCCCCCCC [hexadecane],Lack of toxicity,
CCCCCCCCCCCCCC [tetradecane],Lack of toxicity,
CCCCCCCCCCCC [dodecane],Lack of toxicity,
CCCCCCCCCCCCCC(=O)OCC [ethyl myristate],non-toxic,
CCCCCCCCCCCC(=O)OCCCC [butyl laurate],non-toxic,
"CCCc1cc(O)cc(O)c1C(=O)O [divarinic acid, 2,4-dihydroxy-6-propylbenzoic acid]",,partitioning into monoester overlays compared with olivetolic acid and olivetol [2]: partition less effectively
CCCCCCCCCCCC(=O)OCC [ethyl laurate],non-toxic,
"CCCCCc1cc(O)cc(O)c1C(=O)O [OA, olivetolic acid]",,partitioning between overlay and aqueous phase ([4]; IPM overlay): partitioned between the IPM and aqueous phases; partitioning between overlay and aqueous phase ([4]; diethyl sebacate overlay): entirely partitioned into diethyl sebacate
CCCCCCCCOC(C)=O [octyl acetate],toxic,
CCOC(=O)C(CC)(CC)C(=O)OCC [diethyl diethylmalonate],,"toxicity to growth (OD600), with galactose (S. cerevisiae [1]): substantial lag; toxicity to growth (OD600), with glucose (S. cerevisiae [1]): modest growth by most strains"
